From ChEMBL document CHEMBL5325488, “Discovery of SMD-3040 as a Potent and Selective SMARCA2 PROTAC Degrader with Strong in vivo Antitumor Activity” (J Med Chem, 2023)

Legend:
[1] = biological target: T1, von Hippel-Lindau disease tumor suppressor/SWI/SNF-related matrix-associated actin-dependent regulator of chromatin subfamily A member 2 (Homo sapiens, UniProt P51531+P40337); assay: PROTAC activity at VHL/C-terminal HiBiT fused SMARCA2 in human HeLa cells assessed as induction of SMARCA2 degradation incubated for 1 to 48 hrs by Nano-Glo HiBiT analysis; format: cell-based; conditions: dose 0.001-10 µM, time 1-48 hrs
T1 sequence (P40337 whole entry, looked up, the tested form may be a part): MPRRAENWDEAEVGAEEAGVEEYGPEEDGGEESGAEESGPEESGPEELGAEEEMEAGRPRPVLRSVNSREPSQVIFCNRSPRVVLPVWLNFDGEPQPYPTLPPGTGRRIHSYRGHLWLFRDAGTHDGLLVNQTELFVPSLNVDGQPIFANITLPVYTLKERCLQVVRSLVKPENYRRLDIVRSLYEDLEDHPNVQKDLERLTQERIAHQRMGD
T1 sequence (P51531 whole entry, looked up, the tested form may be a part): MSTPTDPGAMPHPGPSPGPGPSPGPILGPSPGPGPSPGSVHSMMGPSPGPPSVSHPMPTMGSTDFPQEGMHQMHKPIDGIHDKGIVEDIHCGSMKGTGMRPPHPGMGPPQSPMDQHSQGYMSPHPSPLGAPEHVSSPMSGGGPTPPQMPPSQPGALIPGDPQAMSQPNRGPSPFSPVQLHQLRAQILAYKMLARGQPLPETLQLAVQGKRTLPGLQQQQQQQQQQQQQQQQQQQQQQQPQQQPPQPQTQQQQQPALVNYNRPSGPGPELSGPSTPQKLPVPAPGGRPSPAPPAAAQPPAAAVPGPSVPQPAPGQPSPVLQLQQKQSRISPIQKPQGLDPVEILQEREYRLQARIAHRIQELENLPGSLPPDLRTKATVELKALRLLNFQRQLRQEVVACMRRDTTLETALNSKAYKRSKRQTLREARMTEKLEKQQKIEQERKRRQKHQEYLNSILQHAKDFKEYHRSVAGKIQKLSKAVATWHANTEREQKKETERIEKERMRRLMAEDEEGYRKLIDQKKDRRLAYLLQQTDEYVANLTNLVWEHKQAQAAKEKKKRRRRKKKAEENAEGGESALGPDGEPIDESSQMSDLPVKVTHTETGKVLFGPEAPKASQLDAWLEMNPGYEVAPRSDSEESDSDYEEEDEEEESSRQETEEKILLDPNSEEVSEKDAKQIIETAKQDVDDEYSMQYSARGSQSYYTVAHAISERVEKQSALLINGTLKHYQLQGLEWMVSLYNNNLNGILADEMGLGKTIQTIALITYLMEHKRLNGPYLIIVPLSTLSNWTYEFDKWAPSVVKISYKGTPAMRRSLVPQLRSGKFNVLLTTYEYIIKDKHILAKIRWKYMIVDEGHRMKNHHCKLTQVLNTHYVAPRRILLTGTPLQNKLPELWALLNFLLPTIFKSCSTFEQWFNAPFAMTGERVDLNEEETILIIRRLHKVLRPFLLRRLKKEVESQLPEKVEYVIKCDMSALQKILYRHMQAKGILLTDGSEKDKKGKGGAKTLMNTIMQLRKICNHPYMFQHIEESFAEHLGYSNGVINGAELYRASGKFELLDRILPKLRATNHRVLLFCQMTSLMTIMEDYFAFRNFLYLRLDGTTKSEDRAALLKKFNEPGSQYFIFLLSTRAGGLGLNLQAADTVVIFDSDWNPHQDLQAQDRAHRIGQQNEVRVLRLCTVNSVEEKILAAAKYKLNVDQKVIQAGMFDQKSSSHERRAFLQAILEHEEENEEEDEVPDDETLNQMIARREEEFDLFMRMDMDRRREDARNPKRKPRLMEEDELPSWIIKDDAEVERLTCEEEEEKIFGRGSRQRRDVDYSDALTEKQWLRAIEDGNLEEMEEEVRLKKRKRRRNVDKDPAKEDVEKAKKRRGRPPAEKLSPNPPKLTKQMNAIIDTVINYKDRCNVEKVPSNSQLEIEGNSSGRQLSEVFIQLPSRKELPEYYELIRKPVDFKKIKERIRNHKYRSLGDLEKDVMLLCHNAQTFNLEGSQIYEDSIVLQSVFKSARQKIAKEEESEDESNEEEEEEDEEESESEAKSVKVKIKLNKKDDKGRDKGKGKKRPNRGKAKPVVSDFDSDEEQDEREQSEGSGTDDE

SK-MEL-5 = assay: Antitumor activity against SMARCA4-deficient human SK-MEL-5 cells xenografted in SCID mouse assessed as tumor growth inhibition at 50 mg/kg, iv administered twice a week measured after 32 days relative to control; format: functional; conditions: SK-MEL-5, 768 h, time 32 day, read-out: TGI
NCI-H838 = assay: Antiproliferative activity against SMARCA4-deficient human NCI-H838 cells assessed as cell growth inhibition measured after 7 days by WST-8 assay; format: functional; conditions: NCI-H838, 168 h, time 7 day
[2] = biological target: T2, von Hippel-Lindau disease tumor suppressor/SWI/SNF-related matrix-associated actin-dependent regulator of chromatin subfamily A member 4 (Homo sapiens, UniProt P51532+P40337); assay: In vivo PROTAC activity at VHL/SMARCA4 in SCID mouse xenografted with human MV4-11 cells assessed as reduction of SMARCA4 level in tumor at 50 mg/kg, iv administered as single dose measured after 96 hrs by Western blotting analysis; format: ADME, organism-based; design: scale not given: the % may be the effect or the level left
T2 sequence (P51532 whole entry): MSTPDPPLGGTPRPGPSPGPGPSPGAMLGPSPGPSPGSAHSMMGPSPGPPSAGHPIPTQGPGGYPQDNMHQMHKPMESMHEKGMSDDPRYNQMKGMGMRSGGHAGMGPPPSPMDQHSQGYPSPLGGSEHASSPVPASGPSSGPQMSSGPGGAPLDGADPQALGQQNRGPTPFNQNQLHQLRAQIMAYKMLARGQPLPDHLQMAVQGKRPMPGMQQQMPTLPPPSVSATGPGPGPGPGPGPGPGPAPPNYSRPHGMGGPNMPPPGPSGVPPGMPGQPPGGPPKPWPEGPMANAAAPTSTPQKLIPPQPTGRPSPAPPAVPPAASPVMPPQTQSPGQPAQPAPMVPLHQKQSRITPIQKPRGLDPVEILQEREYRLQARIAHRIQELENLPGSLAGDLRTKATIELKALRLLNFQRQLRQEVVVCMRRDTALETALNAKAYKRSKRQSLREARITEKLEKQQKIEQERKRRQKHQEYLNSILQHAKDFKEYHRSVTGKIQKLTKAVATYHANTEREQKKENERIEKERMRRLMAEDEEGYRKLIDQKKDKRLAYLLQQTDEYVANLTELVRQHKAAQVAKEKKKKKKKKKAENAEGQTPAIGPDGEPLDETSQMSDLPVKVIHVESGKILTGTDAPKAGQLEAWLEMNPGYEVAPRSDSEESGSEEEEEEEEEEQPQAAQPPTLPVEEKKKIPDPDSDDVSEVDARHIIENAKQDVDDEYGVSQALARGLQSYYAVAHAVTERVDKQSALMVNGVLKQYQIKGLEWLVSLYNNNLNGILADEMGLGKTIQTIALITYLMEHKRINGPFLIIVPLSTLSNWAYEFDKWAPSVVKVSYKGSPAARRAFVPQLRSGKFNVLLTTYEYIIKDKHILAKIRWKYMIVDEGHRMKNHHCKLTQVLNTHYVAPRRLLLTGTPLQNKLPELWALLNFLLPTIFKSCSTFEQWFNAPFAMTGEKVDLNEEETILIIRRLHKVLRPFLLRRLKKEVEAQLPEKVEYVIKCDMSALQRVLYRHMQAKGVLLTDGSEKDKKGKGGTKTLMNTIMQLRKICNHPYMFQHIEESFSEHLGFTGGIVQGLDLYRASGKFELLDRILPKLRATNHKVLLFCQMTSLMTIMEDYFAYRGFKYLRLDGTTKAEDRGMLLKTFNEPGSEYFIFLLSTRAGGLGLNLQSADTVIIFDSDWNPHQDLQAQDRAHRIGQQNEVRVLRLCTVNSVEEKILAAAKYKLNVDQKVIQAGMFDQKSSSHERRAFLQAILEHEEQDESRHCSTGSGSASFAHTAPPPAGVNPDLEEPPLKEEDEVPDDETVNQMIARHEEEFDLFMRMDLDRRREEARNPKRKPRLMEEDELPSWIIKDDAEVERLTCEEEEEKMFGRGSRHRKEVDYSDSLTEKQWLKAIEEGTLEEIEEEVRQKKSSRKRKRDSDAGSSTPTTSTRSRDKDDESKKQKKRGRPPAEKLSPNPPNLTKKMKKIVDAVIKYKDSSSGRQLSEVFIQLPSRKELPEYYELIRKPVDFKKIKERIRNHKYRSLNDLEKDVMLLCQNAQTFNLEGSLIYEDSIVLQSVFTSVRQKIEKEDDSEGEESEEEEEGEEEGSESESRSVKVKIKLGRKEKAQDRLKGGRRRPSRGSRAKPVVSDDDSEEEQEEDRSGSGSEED
T2 sequence (P40337 whole entry): as the sequence (P40337 whole entry, looked up, the tested form may be a part) above

[3] = biological target: T1, von Hippel-Lindau disease tumor suppressor/SWI/SNF-related matrix-associated actin-dependent regulator of chromatin subfamily A member 2; assay: PROTAC activity at VHL/wild-type SMARCA2 in human SK-MEL-28 cells assessed as induction of SMARCA2 degradation at 0.001 to 1000 nM incubated for 24 hrs by Western blotting analysis relative to control; format: cell-based; conditions: dose 0.001-1000 nM
[4] = biological target: T2, von Hippel-Lindau disease tumor suppressor/SWI/SNF-related matrix-associated actin-dependent regulator of chromatin subfamily A member 4; assay: In vivo PROTAC activity at VHL/SMARCA4 in SCID mouse xenografted with human MV4-11 cells assessed as remaining activity in tumor at 50 mg/kg, iv administered as single dose measured after 48 hrs by Western blotting analysis (reference value: 100 +/- 15 % ); format: ADME, organism-based

In the case of `Cc1ncsc1-c1ccc([C@H](C)NC(=O)[C@@H]2C[C@@H](O)CN2C(=O)[C@@H](NC(=O)[C@H]2CC[C@H](CN3CC4(CCC(n5cc(-c6cc(-c7ccccc7O)nnc6N)cn5)CC4)C3)CC2)C(C)(C)C)cc1`, the Activity [1] is reported as “Dose-Dependent Effect”, the inhibition in vivo at 50 mg/kg (SK-MEL-5) is reported as 74% and the GI50 (NCI-H838) is reported as 119 nM. The Activity [2] was 16%, the Emax [3] was 98% and the Activity [4] was 87%.
